Test results: publication PMC7005905, “Identification and characterization of a bacterial core methionine synthase” (Scientific Reports, 2020)

What was measured:
[1] = biological target: T1, tr-MetEEco (Escherichia coli, UniProt P25665); test: HPLC and MS of products; type: biochemical; conditions: 2 mM D,L-homocysteine, 150 µM 5-methyl-THF-Glu3, pH 7.2, 100 µM MgSO4, 100 µM ZnSO4, 10 mM DTT, 37 °C
T1 construct: gene metE; tandem-repeat MetE, full length, 753 residues, 85 kDa, recombinant in E. coli DH10B (pBAD30_MetE), anion exchange; source strain of the gene not in main text (K-12 likely)
T1 sequence (P25665 2-753): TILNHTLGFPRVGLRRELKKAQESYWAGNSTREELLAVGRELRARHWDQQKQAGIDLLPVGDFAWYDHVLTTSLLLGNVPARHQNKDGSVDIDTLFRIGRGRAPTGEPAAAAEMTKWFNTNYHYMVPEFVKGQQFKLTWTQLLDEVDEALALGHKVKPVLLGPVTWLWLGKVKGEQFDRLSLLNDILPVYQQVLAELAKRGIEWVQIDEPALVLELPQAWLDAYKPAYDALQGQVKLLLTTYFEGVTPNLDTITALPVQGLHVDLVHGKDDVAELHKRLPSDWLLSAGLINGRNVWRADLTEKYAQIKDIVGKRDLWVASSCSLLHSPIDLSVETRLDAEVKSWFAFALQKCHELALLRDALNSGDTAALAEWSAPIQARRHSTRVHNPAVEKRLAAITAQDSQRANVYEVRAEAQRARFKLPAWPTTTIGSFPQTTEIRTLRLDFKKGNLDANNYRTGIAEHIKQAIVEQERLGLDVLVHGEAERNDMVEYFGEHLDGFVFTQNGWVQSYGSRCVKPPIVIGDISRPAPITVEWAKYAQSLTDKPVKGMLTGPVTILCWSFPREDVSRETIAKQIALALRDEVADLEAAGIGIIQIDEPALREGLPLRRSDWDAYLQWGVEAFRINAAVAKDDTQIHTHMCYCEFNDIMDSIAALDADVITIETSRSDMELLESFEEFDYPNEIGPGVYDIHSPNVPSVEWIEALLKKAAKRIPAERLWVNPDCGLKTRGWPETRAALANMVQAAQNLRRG

[2] = biological target: T2, core-MetECBDB (Dehalococcoides mccartyi, UniProt A0A916P3S8); conditions: 2 mM D,L-homocysteine, 50 mM Tris/HCl pH 6.5, 150 mM NaCl, 10% glycerol, anoxic, 0.1 µM enzyme; Hill fit
T2 construct: gene cbdbA481

[3] = substrate: NC(CCS)C(=O)O; test: purified protein; conditions: 0.5 mM methylcob(III)alamin, 50 mM Tris/HCl pH 6.5, 150 mM NaCl, 10% glycerol, anoxic, 0.1 µM enzyme, racemate, enzyme taken as L-specific, Hill fit

Q: With `NC(CCS)C(=O)O` (racemic) [D,L-homocysteine] as the molecule, how does the “HPLC and MS of products” value [1] read?
A: The value was “in the presence of tr-MetEEco, methionine was formed”.

Q: For `C.C/C1=C2/N[C@H]([C@H](CC(N)=O)[C@@]2(C)CCC(=O)NC[C@@H](C)OP(=O)(O)O[C@H]2[C@@H](O)[C@@H](n3cnc4cc(C)c(C)cc43)O[C@@H]2CO)[C@]2(C)N=C(/C(C)=C3N=C(/C=C4N=C1[C@@H](CCC(N)=O)C\4(C)C)[C@@H](CCC(N)=O)[C@]\3(C)CC(N)=O)[C@@H](CCC(N)=O)[C@]2(C)CC(N)=O.[Co]` [MeCbl(III), methylcob(III)alamin], which Km [2] is on record?
A: Its Km is 236 ± 3 µM.

B1: core-MetECBDB (Dehalococcoides mccartyi CBDB1) (protein)
chain: MTKTDFYFLPTMIGSMPHTDPKAAVDIITHYLRDIPVWPQLPRRSYLEGMSAQFSQGLPGVNINQDKMWIEPNSGFEGELESLYQAYLDNDFNKFPIGVEYAAGLYELASRSNLSPKLVKGHITGPLTYCMSIKDPSGKDILYDEVLSDAATKLLKLKASWQEHFLKKICRNTIIFVDEPAMSAYGSAYLPLSREQVTGMFEEVFSGISGLKGVHCCGNTDWSILMDTSVDIINFDTYSYADSLAIYTDALQAFIKRGGAVAWGIVPTDEKALKEETAASLKDRLEAAMSHFDSKGLPFAELARHSLITPACGLGLKSLDAAERAPELLAELSALLRRKHGTV
Q: Which results are given for B1?
A: Km [3]: 98 ± 0 µM; kcat [3]: ~60 s⁻¹
